Measured values as given in patent US7943628B2, “Pyrimidine derivatives” (Pfizer Limited, priority 2005, dated 2011).

The compounds below were run against T1, histamine H4 receptor (Homo sapiens, UniProt Q9H3N8) (assay: H4 binding, method 1 ([3H]-histamine filtration binding on CHO cell membranes)). Conditions: H4 binding, method 1; Ki calculated from IC50 (Cheng-Prussoff).
T1 construct: expressed in transfected cells; host or cells: CHO cells
T1 sequence (Q9H3N8 whole entry): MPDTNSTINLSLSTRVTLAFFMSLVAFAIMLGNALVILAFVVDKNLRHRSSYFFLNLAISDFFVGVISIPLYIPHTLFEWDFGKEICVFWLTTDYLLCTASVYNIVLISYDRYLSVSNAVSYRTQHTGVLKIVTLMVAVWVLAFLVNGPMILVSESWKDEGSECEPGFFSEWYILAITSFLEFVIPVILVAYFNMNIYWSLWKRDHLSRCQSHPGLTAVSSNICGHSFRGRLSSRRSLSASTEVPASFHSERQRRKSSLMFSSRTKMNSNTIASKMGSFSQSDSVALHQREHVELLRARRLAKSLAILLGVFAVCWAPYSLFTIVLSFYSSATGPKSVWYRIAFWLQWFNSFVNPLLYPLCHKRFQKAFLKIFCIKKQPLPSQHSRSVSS
Method: Cell pellets from CHO cells expressing the histamine H4 receptor were homogenised in ice-cold 50 mM Tris-HCl/0.5 mM CaCl2 buffer containing a protease inhibitor cocktail (Roche®, United Kingdom) using a ground glass homogeniser. Homogenates were centrifuged at 48000 g for 30 min at 4° C. The membrane pellet was resuspended in fresh buffer and the centrifugation step was repeated as described above. The membrane pellet was resuspended in 50 mM Tris-HCl in the same volume as the original cell pellet. Aliquots of membrane preparations were stored at −80° C. and were used for [^3H]-Histamine binding experiments.
Cell membranes (20-35 μg/well) were incubated for 90 minutes shaking at room temperature with 3 nM [2,5-^3H]Histamine dihydrochloride (30-60 Ci/mmol) in 50 mM Tris-HCl (pH 7.4), with or without competing H4 ligands. The reaction was terminated by rapid filtration through 0.5% polyethylenimine-soaked Unifilter GF/B plates (Packard) followed by three washes with 1 ml ice-cold 50 mM Tris-HCl. Filters were dried for 45 min at 45° C. and bound radiolabel was determined using scintillation counting techniques. Non-specific binding was defined with 10 μM JNJ7777120.
`CC(C)Nc1cc(N2C[C@@H]3CCCN[C@@H]3C2)nc(N)n1` [Example 169, N^4-Isopropyl-6-[(4aS,7aS)-octahydro-6H-pyrrolo[3,4-b]pyridin-6-yl]pyrimidine-2,4-diamine] was tested, and the Ki was 6.77 nM.
Work on `CCNc1cc(N2CC(N)C2)nc(N)n1` [Example 170, 6-(3-Aminoazetidin-1-yl)-N^4-ethylpyrimidine-2,4-diamine] yielded a Ki of 8.55 nM.
In the case of `Nc1nc(NCC2CC2)cc(N2CC(N)C2)n1` [Example 171, 6-(3-Aminoazetidin-1-yl)-N^4-(cyclopropylmethyl)pyrimidine-2,4-diamine], the Ki was 9.21 nM.
Work on `Nc1nc(NC2CC2)cc(N2CCC3NCCC3C2)n1` (stereo not drawn) [Example 172, N^4-Cycopropyl-6-[(3aR*,7aS*)-octahydro-5H-pyrrolo[3,2-c]pyridin-5-yl]pyrimidine-2,4-diamine] yielded a Ki of 9.3 nM.
`CNC1CN(c2cc(N3CCC(C)CC3)nc(N)n2)C1` [Example 173, 4-[3-(Methylamino)azetidin-1-yl]-6-(4-methylpiperidin-1-yl)pyrimidin-2-amine] showed a Ki of 10.1 nM.
Work on `CN[C@@H]1CCN(c2cc(NCC3CCCC3)nc(N)n2)C1` [Example 174, N^4-(Cyclopentylmethyl)-6-[(3R)-3-(methylamino)pyrrolidin-1-yl]pyrimidine-2,4-diamine] yielded a Ki of 10.6 nM.
Compound `CCNc1cc(N2CCCNCC2)nc(N)n1` [Example 175, 6-(1,4-Diazepan-1-yl)-N^4-ethylpyrimidine-2,4-diamine] has a Ki of 12.3 nM.
In the case of `CN(C)CCNc1cc(NCC2CC2)nc(N)n1` [Example 176, N^4-(Cyclopropylmethyl)-N6-[2-(dimethylamino)ethyl]pyrimidine-2,4,6-triamine], the Ki was 15.1 nM.
For `CN[C@H]1CCN(c2cc(NCC(C)(C)C)nc(N)n2)C1` [Example 177, N^4-(2,2-Dimethylpropyl)-6-[(3S)-3-(methylamino)pyrrolidin-1-yl]pyrimidine-2,4-diamine], the Ki was 16 nM.
In the case of `Nc1nc(NC2CCC2)cc(N2C[C@@H]3CCCN[C@@H]3C2)n1` [Example 178, N^4-Cyclobutyl-6-[(4aS,7aS)-octahydro-6H-pyrrolo[3,4-b]pyridin-6-yl]pyrimidine-2,4-diamine], the Ki was 16.1 nM.
With `CNC1CN(c2cc(NC3CCC3)ncn2)C1` [Example 179, N-Cyclobutyl-6-[3-(methylamino)azetidin-1-yl]pyrimidin-4-amine] the Ki was 16.5 nM.
Work on `CCCNc1cc(N2CC[C@@H](NC)C2)nc(N)n1` [Example 180, 6-[(3R)-3-(Methylamino)pyrrolidin-1-yl]-N^4-propylpyrimidine-2,4-diamine] yielded a Ki of 17.4 nM.
`CN[C@@H]1CCN(c2cc(NC3CCC3)ncn2)C1` [Example 181, N-Cyclobutyl-6-[(3R)-3-(methylamino)pyrrolidin-1-yl]pyrimidin-4-amine] gave a Ki of 17.6 nM.
For `CNC1CN(c2cc(NCCOC)nc(N)n2)C1` [Example 182, N^4-(2-Methoxyethyl)-6-[3-(methylamino)azetidin-1-yl]pyrimidine-2,4-diamine], the Ki was 19.8 nM.
`CN[C@@H]1CCN(c2cc(NCC(C)(C)C)ncn2)C1` [Example 183, N-(2,2-Dimethylpropyl)-6-[(3R)-3-(methylamino)pyrrolidin-1-yl]pyrimidin-4-amine] was tested, and the Ki was 20 nM.
Work on `C[C@H]1CN(c2cc(NCC3CC3)nc(N)n2)CCN1` [Example 184, N^4-(Cyclopropylmethyl)-6-[(3S)-3-methylpiperazin-1-yl]pyrimidine-2,4-diamine] yielded a Ki of 20.4 nM.
With `CCNc1cc(N2CCCN(C)CC2)nc(N)n1` [Example 185, N^4-Ethyl-6-(4-methyl-1,4-diazepan-1-yl)pyrimidine-2,4-diamine] the Ki was 20.5 nM.
Work on `CNC1(C)CN(c2cc(NCC(C)(C)C)nc(N)n2)C1` [Example 186, N^4-(2,2-Dimethylpropyl)-6-[3-methyl-3-(methylamino)azetidin-1-yl]pyrimidine-2,4-diamine] yielded a Ki of 22.2 nM.
In the case of `CC(C)Nc1cc(N2CCNCC2)nc(N)n1` [Example 187, N^4-Isopropyl-6-piperazin-1-ylpyrimidine-2,4-diamine], the Ki was 22.4 nM.
Compound `CNC1CN(c2cc(NC3CC3)ncn2)C1` [Example 189, N-Cyclopropyl-6-[3-(methylamino)azetidin-1-yl]pyrimidin-4-amine] has a Ki of 25.8 nM.
In the case of `CC(C)(C)CNc1cc(N2CC(N)C2)nc(N)n1` [Example 190, 6-(3-Aminoazetidin-1-yl)-N^4-(2,2-dimethylpropyl)pyrimidine-2,4-diamine], the Ki was 27.7 nM.
With `CN1C[C@@H]2C[C@H]1CN2c1cc(NCC(C)(C)C)nc(N)n1` [Example 191, N^4-(2,2-Dimethylpropyl)-6-[(1S,4S)-5-methyl-2,5-diazabicyclo[2.2.1]hept-2-yl]pyrimidine-2,4-diamine] the Ki was 28.2 nM.
`CC(C)(C)CNc1cc(N2CC(N3CCCC3)C2)ncn1` [Example 192, N-(2,2-Dimethylpropyl)-6-(3-pyrrolidin-1-ylazetidin-1-yl)pyrimidin-4-amine] was tested, and the Ki was 28.7 nM.
`CN(C)CCNc1cc(NCC2CC2)ncn1` [Example 194, N-(Cyclopropylmethyl)-N′-[2-(dimethylamino)ethyl]pyrimidine4,6-diamine] was tested, and the Ki was 32.4 nM.
Work on `CCC(C)CNc1cc(N2CC[C@@H](N)C2)nc(N)n1` (stereo partly drawn) [Example 195, 6-[(3R)-3-Aminopyrrolidin-1-yl]-N^4-(2-methylbutyl)pyrimidine-2,4-diamine] yielded a Ki of 32.6 nM.
`CNC1(C)CN(c2cc(NCC3CC3)nc(N)n2)C1` [Example 196, N^4-(Cyclopropylmethyl)-6-[3-methyl-3-(methylamino)azetidin-1-yl]pyrimidine-2,4-diamine] showed a Ki of 33.1 nM.
`CCNc1cc(N2CC(N3CCCC3)C2)nc(N)n1` [Example 197, N^4-Ethyl-6-(3-pyrrolidin-1-ylazetidin-1-yl)pyrimidine-2,4-diamine] gave a Ki of 33.2 nM.
`CC(C)Nc1cc(N2CCCN(C)CC2)nc(N)n1` [Example 198, N^4-isoPropyl-6-(4-methyl-1,4-diazepan-1-yl)pyrimidine-2,4-diamine] was tested, and the Ki was 33.6 nM.
`CN[C@@H]1CCN(c2cc(NC3CCC3)nc(N)n2)C1` [Example 199, N^4-Cyclobutyl-6-[(3R)-3-(methylamino)pyrrolidin-1-yl]pyrimidine-2,4-diamine] was tested, and the Ki was 33.9 nM.
`CC(C)(C)CNc1cc(N2CCC(N)CC2)nc(N)n1` [Example 201, 6-(4-Aminopiperidin-1-yl)-N^4-(2,2-dimethylpropyl)pyrimidine-2,4-diamine] was tested, and the Ki was 35 nM.
Compound `CN[C@@H]1CCN(c2cc(NC(C)C)ncn2)C1` [Example 202, N-Isopropyl-6-[(3R)-3-(methylamino)pyrrolidin-1-yl]pyrimidin-4-amine] has a Ki of 36.5 nM.
For `CN[C@@H]1CCN(c2cc(NC3CC3)ncn2)C1` [Example 203, N-Cyclopropyl-6-[(3R)-3-(methylamino)pyrrolidin-1-yl]pyrimidin-4-amine], the Ki was 37.9 nM.
Work on `CN[C@H]1CCN(c2cc(NCC3CC3)nc(N)n2)C1` [Example 204, N^4-(Cyclopropylmethyl)-6-[(3S)-3-(methylamino)pyrrolidin-1-yl]pyrimidine-2,4-diamine] yielded a Ki of 39 nM.
`CCNc1cc(N2CC[C@H](NC)C2)nc(N)n1` [Example 205, N^4-Ethyl-6-[(3S)-3-(methylamino)pyrrolidin-1-yl]pyrimidine-2,4-diamine] gave a Ki of 39.3 nM.
`CCCNc1cc(N2CC(NC)C2)ncn1` [Example 206, 6-[3-(Methylamino)azetidin-1-yl]-N-propylpyrimidin-4-amine] gave a Ki of 39.9 nM.
For `CN[C@H]1CCN(c2cc(NC(C)(C)C)nc(N)n2)C1` [Example 207, N^4-(tert-Butyl)-6-[(3S)-3-(methylamino)pyrrolidin-1-yl]pyrimidine-2,4-diamine], the Ki was 43.3 nM.
`CNc1cc(N2CCNCC2)nc(N)n1` [Example 208, N^4-Methyl-6-piperazin-1-ylpyrimidine-2,4-diamine] gave a Ki of 45.1 nM.
`CNCC1CN(c2cc(NCC(C)(C)C)nc(N)n2)C1` [Example 209, N^4-(2,2-Dimethylpropyl)-6-{3-[(methylamino)methyl]azetidin-1-yl}pyrimidine-2,4-diamine] gave a Ki of 46.4 nM.
With `Nc1nc(NCC2CC2)cc(N2C[C@@H]3CCCN[C@@H]3C2)n1` [Example 210, N^4-(Cyclopropylmethyl)-6-[(4aS,7aS)-octahydro-6H-pyrrolo[3,4-b]pyridin-6-yl]pyrimidine-2,4-diamine] the Ki was 48.9 nM.
`CN[C@H]1CCN(c2cc(NCCC(C)(C)C)nc(N)n2)C1` [Example 211, N^4-(3,3-Dimethylbutyl)-6-[(3S)-3-(methylamino)pyrrolidin-1-yl]pyrimidine-2,4-diamine] was tested, and the Ki was 49.3 nM.
With `NCCNc1cc(NCC2CC2)nc(N)n1` [Example 212, N^4-(2-Aminoethyl)-N^6-(cyclopropylmethyl)pyrimidine-2,4,6-triamine] the Ki was 50 nM.
Work on `C[C@H]1CN(c2cc(NCc3ccccc3F)nc(N)n2)CCN1` [Example 213, N^4-(2-Fluorobenzyl)-6-[(3S)-3-methylpiperazin-1-yl]pyrimidine-2,4-diamine] yielded a Ki of 52.9 nM.
Compound `CCNc1cc(N2CCNCC2)nc(N)n1` [Example 214, N^4-Ethyl-6-piperazin-1-ylpyrimidine-2,4-diamine] has a Ki of 54.4 nM.
In the case of `Nc1nc(NCC2CC2)cc(N2CC[C@@H](N)C2)n1` [Example 215, 6-[(3R)-3-Aminopyrrolidin-1-yl]-N^4-(cyclopropylmethyl)pyrimidine-2,4-diamine], the Ki was 57.3 nM.
`CC(C)CNc1cc(N2CC[C@@H](N)C2)nc(N)n1` [Example 216, 6-[(3R)-3-Aminopyrrolidin-1-yl]-N^4-isobutylpyrimidine-2,4-diamine] showed a Ki of 70.6 nM.
